From US20100093777A1 (Takeda Pharmaceutical Company Limited, priority 2007, published 2010)

Legend:
Human ACC1 = target: T1, Human ACC1 (Homo sapiens, UniProt Q13085); assay: Measurement of ACC1 inhibitory activity (recombinant enzyme, malachite green absorbance); assay type: biochemical; settings: recombinant human ACC1 8 μg/ml; 30° C.; 200 μM ATP, 200 μM Acetyl-CoA; absorbance 620 nm
T1 construct: His tag (from the pFAST-BacHTc vector); own knowledge: N-terminal 6xHis with TEV site; made in house; host or cells: SF-9 insect cells, recombinant baculovirus BAC-ACC1
Method: The ACC1 inhibitory action of the compound of the present invention was evaluated by the following method.
Human ACC1 gene was cloned by PCR using a human liver cDNA library (Clontech) as a template and Primer 1 and Primer 2 shown below. Primer 1 and Primer 2 were prepared by adding SalI, NotI restriction enzyme recognition sequence based on the information of the base sequence (Genbank Accession U19822) of human ACC1 gene.
(§1) PCR was performed using a Pyrobest DNA polymerase (TAKARA BIO INC.) The obtained PCR product was cloned to pT7 Blue vector (Novagen) and, after confirmation of the base sequence, digested with restriction enzymes SalI and NotI. The obtained DNA fragment was inserted to pFAST-BacHTc (Invitrogen) digested with restriction enzymes SalI and NotI to give expression plasmid ACC1/pFAST-BacHTc.
Using the expression plasmid and BAC-TO-BAC Baculovirus Expression System (Invitrogen), virus stock BAC-ACC1 of recombinant Baculovirus was prepared.
SF-9 cells (Invitrogen) were inoculated to a medium (1 L) for insect cells (Sf-900IISFM medium (Invitrogen) containing 10% fetal bovine serum (Trace), 50 mg/L Gentamicin (Invitrogen) and 0.1% Pluronic F-68 (Invitrogen)) at 1×10^6 cells/mL, and cultured with shaking at 27° C., 100 rpm in a 2 L Erlenmeyer flask.
After 24 hr of the culture, recombinant Baculovirus BAC-ACC1 (10 mL) was added, and the cells were further cultured for 3 days. The culture medium was centrifuged at 1000×g for 5 min to give virus-infected cells. The cells were washed with phosphate buffered saline (Invitrogen), and centrifuged under the same conditions, and the obtained cells were cryopreserved at −80° C.
The cryopreserved cells were thawed in ice and suspended in 100 mL of 25 mM HEPES buffer (pH 7.5) containing 10% Glycerol, 0.13 M NaCl, 1 mM EDTA, 25 mM Sodium β-Glycerophosphate and 1 mM Sodium Orthovanadate, and supplemented with Complete Protease Inhibitor (Nippon Boehringer Ingelheim Co., Ltd.). The obtained suspension was homogenized 3 times in a polytron homogenizer (Kinematica) at 20,000 rpm for 30 sec. The obtained cell disruption solution was clarified by centrifugation at 185700×g for 50 min, and filtered through a 0.45 μm filter. The filtrate was passed through a column packed with 12 mL of Ni-NTA Super Flow Gel (QUIAGEN) at a flow rate of about 5 mL/min. The column was washed with buffer A (50 mM HEPES (pH 7.5) containing 0.3 M NaCl), further washed with buffer A containing 20 mM Imidazole, and eluted with buffer A containing 100 mM Imidazole. The eluate was concentrated with Vivaspin 20 (Vivascience) with a molecular weight cut off of 30K. The obtained concentrate was dialyzed against Sephadex G-25 (Amersham Biosciences, 358 ml) equilibrated with 50 mM HEPES (pH 7.5) containing 10 mM MgCl2, 2 mM Dithiothreitol, 10 mM Tripotassium Citrate and 0.3 M NaCl. The inner dialysate was concentrated with Vivaspin 20 (Vivascience) with a molecular weight cut off of 30K, and the concentrate was filtered through a 0.22 μm filter to give ACC1. The obtained ACC1 was cryopreserved at −80° C.
ACC1 (0.93 mg/ml) obtained in the above-mentioned (2) was diluted with an enzyme reaction buffer (50 mM HEPES (pH 7.5), 10 mM MgCl2, 10 mM Tripotassium Citrate, 2 mM Dithiothreitol, 0.75 mg/ml Fatty acid free BSA) to concentration of 8 μg/ml, and the mixture was added to each well of 384 well assay plate (Nunc 265196) by 10 μl.
Thereafter, ACC1 inhibitory rate (%) was measured in the same manner as in the below-mentioned Experimental Example 2-(3), and IC50 value was calculated.
ACC2 (Nd) (1.1 mg/ml) obtained in the above-mentioned (2) was diluted with an enzyme reaction buffer (50 mM HEPES (pH 7.5), 10 mM MgCl2, 10 mM Tripotassium Citrate, 2 mM Dithiothreitol, 0.75 mg/ml Fatty acid free BSA) to a concentration of 6.4 μg/ml, and the mixture was added to each well of a 384 well assay plate (Nunc 265196) by 10 μl. […]

[1] = target: T2, Human ACC2 (Nd, N terminal deleted) (Homo sapiens, UniProt O00763); assay: Measurement of ACC2 inhibitory activity (recombinant ACC2 (Nd), malachite green absorbance); assay type: biochemical; settings: recombinant human ACC2 (Nd) 6.4 μg/ml; 30° C.; 200 μM ATP, 200 μM Acetyl-CoA; absorbance 620 nm
T2 construct: His tag (from the pFAST-BacHTa vector); own knowledge: N-terminal 6xHis with TEV site; made in house; host or cells: SF-9 insect cells, recombinant baculovirus BAC-ACC2 (Nd)
T2 sequence (O00763 117-2458 limits assumed, stated change not applied): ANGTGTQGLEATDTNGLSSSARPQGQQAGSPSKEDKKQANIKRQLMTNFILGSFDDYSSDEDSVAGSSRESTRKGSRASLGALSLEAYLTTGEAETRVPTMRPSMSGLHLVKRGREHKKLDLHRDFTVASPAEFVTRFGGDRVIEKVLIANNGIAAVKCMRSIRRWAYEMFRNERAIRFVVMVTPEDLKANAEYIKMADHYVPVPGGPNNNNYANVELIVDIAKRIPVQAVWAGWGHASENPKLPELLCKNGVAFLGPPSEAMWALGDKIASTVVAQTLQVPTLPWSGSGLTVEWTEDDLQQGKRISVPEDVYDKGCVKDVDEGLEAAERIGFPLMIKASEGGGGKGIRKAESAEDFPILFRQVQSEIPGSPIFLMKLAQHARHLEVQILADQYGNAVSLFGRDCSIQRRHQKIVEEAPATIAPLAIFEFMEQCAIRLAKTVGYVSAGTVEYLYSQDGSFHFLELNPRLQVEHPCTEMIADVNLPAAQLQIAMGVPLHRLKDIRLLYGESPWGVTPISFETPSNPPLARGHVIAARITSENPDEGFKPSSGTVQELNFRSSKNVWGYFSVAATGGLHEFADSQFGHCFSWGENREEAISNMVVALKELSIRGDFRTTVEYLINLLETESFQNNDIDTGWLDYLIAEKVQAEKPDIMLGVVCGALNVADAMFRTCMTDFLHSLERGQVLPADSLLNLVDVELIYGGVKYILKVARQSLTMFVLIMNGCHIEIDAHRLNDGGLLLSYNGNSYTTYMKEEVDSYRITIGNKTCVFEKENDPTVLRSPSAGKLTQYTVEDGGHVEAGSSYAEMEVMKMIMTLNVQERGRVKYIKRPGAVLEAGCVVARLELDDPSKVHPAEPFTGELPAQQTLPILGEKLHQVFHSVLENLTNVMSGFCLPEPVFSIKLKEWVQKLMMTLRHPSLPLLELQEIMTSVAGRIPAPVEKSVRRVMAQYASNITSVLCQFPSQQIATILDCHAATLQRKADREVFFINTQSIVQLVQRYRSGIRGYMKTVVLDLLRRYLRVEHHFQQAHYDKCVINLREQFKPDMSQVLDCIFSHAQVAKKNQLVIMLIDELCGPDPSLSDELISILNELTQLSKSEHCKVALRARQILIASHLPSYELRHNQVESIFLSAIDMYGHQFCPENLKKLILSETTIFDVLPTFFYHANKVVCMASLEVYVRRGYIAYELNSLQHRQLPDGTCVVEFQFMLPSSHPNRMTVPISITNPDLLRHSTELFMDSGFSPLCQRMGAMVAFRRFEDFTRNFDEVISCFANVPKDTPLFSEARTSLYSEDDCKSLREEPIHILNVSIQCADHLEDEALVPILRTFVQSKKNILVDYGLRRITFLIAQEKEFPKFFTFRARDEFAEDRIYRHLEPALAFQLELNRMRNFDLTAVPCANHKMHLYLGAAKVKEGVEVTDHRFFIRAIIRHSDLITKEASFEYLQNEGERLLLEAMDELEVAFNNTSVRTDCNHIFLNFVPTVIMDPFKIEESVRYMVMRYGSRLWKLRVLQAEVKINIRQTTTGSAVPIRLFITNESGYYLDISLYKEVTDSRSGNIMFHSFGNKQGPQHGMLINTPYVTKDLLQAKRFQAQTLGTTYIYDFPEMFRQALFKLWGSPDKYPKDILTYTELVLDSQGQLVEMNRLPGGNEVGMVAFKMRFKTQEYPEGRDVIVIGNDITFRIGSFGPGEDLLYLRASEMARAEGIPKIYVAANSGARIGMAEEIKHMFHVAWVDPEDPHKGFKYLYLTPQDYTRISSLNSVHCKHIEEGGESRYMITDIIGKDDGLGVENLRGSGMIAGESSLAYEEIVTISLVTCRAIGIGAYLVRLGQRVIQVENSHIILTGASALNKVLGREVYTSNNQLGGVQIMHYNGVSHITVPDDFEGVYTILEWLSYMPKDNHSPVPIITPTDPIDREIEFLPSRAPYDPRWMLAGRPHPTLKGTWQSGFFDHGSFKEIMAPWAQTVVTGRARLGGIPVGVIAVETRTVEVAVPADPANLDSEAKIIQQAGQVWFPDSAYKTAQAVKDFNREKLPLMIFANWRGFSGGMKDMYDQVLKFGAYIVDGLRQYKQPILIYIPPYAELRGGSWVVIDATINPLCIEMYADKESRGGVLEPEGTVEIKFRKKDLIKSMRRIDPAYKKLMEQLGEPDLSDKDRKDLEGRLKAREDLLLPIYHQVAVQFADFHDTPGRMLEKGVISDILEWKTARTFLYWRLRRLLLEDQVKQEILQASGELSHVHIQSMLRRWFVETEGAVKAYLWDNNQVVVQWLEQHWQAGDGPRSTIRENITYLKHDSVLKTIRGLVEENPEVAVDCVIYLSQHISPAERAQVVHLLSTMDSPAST
Method: The ACC2 inhibitory action of the compound of the present invention was evaluated by the following method.
Human ACC2 gene was cloned by PCR using a human skeletal muscle cDNA library (Clontech) as a template and Primer 1 and Primer 2 shown below. Primer 1 and Primer 2 were prepared by adding SalI, XbaI restriction enzyme recognition sequences based on the information of the base sequence (Genbank Accession U89344) of human ACC2 gene.
as §1, with “using” for “using a”, “INC.).” for “INC.)”, “XbaI.” for “NotI.”, “into pFAST-BacHTa” for “to pFAST-BacHTc”, “XbaI” for “NotI”, “ACC2/pFAST-BacHTa.” for “ACC1/pFAST-BacHTc.”
PCR was performed using the expression plasmid as a template and Primer 3 and Primer 4 shown below to prepare a plasmid to be used for expression of ACC2 free of mitochondrial targeting sequence.
as §1, with “Pyrobest-DNA” for “a Pyrobest DNA”, “INC.).” for “INC.)”, “AflII.” for “NotI.”, “into pFAST-BacHTa” for “to pFAST-BacHTc”, “AflII” for “NotI”, “ACC2mito7/pFAST-BacHTa.” for “ACC1/pFAST-BacHTc.”
Using the expression plasmid and BAC-TO-BAC Baculovirus Expression System (Invitrogen), virus stock BAC-ACC2 (N terminal deleted (hereinafter Nd)) of recombinant Baculovirus was prepared.
SF-9 cells (Invitrogen) were inoculated to a medium (2 L) for insect cells (Sf-900IISFM medium (Invitrogen) containing 10% fetal bovine serum (Trace), 50 mg/L Gentamicin (Invitrogen), 0.1% Pluronic F-68 (Invitrogen)) at 0.5×10^6 cells/mL, and cultured with shaking in Wave Bioreactor (Wave) at 27° C., 20 rpm, rocking angle […], oxygen concentration 30%.
On day 4 of the culture, 3 L of the medium for insect cells was added, the rocking angle was set to 8°, and the cells were cultured. On day 5 of the culture, 100 mL of recombinant Baculovirus BAC-ACC2 (Nd) was added, 5 L of the medium for insect cells was further added, the rocking angle was set to 11°, and the cells were cultured for 3 days. The culture medium was centrifuged at 1000×g for 10 min to give virus-infected cells. The cells were washed with phosphate buffered saline (Invitrogen) and centrifuged under the same conditions. The obtained cells were cryopreserved at −80° C.
The cryopreserved cells were thawed in ice and suspended in 900 mL of 25 mM HEPES buffer (pH 7.5) containing 10% Glycerol, 0.13 M NaCl, 1 mM EDTA, 25 mM Sodium βGlycerophosphate and 1 mM Sodium Orthovanadate, and supplemented with Complete Protease Inhibitor (Nippon Boehringer Ingelheim Co., Ltd.). The obtained suspension was homogenized 3 times in a polytron homogenizer (Kinematica) at 20,000 rpm for 30 sec. The obtained cell disruption solution was clarified by centrifugation at 31000×g for 60 min, and filtered through a 0.45 μm filter. The filtrate was passed through a column packed with 60 mL of Ni-NTA Super Flow Gel (QUIAGEN) at a flow rate of about 5 mL/min. The column was washed with buffer A (50 mM HEPES (pH 7.5) containing 0.3 M NaCl), further washed with buffer A containing 20 mM Imidazole, and eluted with buffer A containing 100 mM Imidazole. The eluate was concentrated with Vivaspin 20 (Vivascience) with a molecular weight cut off of 30K. The obtained concentrate was dialyzed against 50 mM HEPES (pH 7.5) containing 10 mM MgCl2, 2[…] Dithiothreitol, 10 mM Tripotassium Citrate and 0.3 M NaCl. The inner dialysate was filtered through a 0.22 μm filter to give ACC2 (Nd). The obtained ACC2 (Nd) was cryopreserved at −80° C.
A test compound was dissolved in dimethyl sulfoxide (DMSO) and the mixture was diluted with an enzyme reaction buffer and the resulting solution (5 μl) was added to each well.

IC50 (Human ACC1)	IC50 [1]	Compound
0.01 to 0.1 µM	0.001 to 0.01 µM	CCNC(=O)Nc1sc2nc(C)ccc2c1C(=O)N1CCC(N2CCCC3(C2)CC(C)(C)OC3=O)CC1 (single isomer, unassigned) [Example 28, N-(3-{[4-(3,3-dimethyl-1-oxo-2-oxa-7-azaspiro[4.5]dec-7-yl)piperidin-1-yl]carbonyl}-6-methylthieno[2,3-b]pyridin-2-yl)-N′-ethylurea]
0.01 to 0.1 µM	0.001 to 0.01 µM	CCNC(=O)Nc1sc2nc(C)ccc2c1C(=O)N1CCC(N2CCCC3(CCN(C(C)C)C3=O)C2)CC1 (single isomer, unassigned) [Example 65, N-ethyl-N′-(3-{[4-(2-isopropyl-1-oxo-2,7-diazaspiro[4.5]dec-7-yl)piperidin-1-yl]carbonyl}-6-methylthieno[2,3-b]pyridin-2-yl)urea]
0.01 to 0.1 µM	–	CNC(=O)Nc1sc2nc(C)ccc2c1C(=O)N1CCC(N2CCCC3(C2)SC(=O)N(C(C)C)C3=O)CC1 (stereo not shown) [Example 31, N-(3-{[4-(3-isopropyl-2,4-dioxo-1-thia-3,7-diazaspiro[4.5]dec-7-yl)piperidin-1-yl]carbonyl}-6-methylthieno[2,3-b]pyridin-2-yl)-N′-methylurea]
0.01 to 0.1 µM	–	CCNC(=O)Nc1sc2nc(C)ccc2c1C(=O)N1CCC(N2CCCC3(C2)N=C(C)N(C(C)C)C3=O)CC1 (stereo not shown) [Example 52]
0.01 to 0.1 µM	0.001 to 0.01 µM	CCNC(=O)Nc1sc2nc(C)c(C)cc2c1C(=O)N1CCC(N2CCCC3(C2)N=C(C)N(C(C)C)C3=O)CC1 (stereo not shown) [Example 56]
–	0.001 to 0.01 µM	CNC(=O)Nc1sc2nc(C)c(C)cc2c1C(=O)N1CCC(N2CCCC3(C2)CC(C)(C)OC3=O)CC1 (stereo not shown) [Example 74]
–	0.001 to 0.01 µM	CCNC(=O)Nc1sc2nc(C)c(C)cc2c1C(=O)N1CCC(N2CCCC3(C2)CC(C)(C)OC3=O)CC1 (stereo not shown) [Example 75]
0.01 to 0.1 µM	–	CCNC(=O)Nc1sc2nc(C(F)(F)F)ccc2c1C(=O)N1CCC(N2CCCC3(CC(=O)N(C(C)C)C3=O)C2)CC1 (stereo not shown) [Example 96, N-ethyl-N′-[3-{[4-(2-isopropyl-1,3-dioxo-2,7-diazaspiro[4.5]dec-7-yl)piperidin-1-yl]carbonyl}-6-(trifluoromethyl)thieno[2,3-b]pyridin-2-yl]urea]

Continued, compound first:

Compound	IC50 (Human ACC1)	IC50 [1]
CNC(=O)Nc1sc2ncccc2c1C(=O)N1CCC(N2CCCC3(C2)CC(C)(C)OC3=O)CC1 (single isomer, unassigned) [Example 14, N-(3-{[4-(3,3-dimethyl-1-oxo-2-oxa-7-azaspiro[4.5]dec-7-yl)piperidin-1-yl]carbonyl}thieno[2,3-b]pyridin-2-yl)-N′-methylurea]	0.01 to 0.1 µM	0.001 to 0.01 µM
CNC(=O)Nc1sc2nc(C)ccc2c1C(=O)N1CCC(N2CCCC3(CC(=O)N(C(C)C)C3=O)C2)CC1 (single isomer, unassigned) [Example 18, N-(3-{[4-(2-isopropyl-1,3-dioxo-2,7-diazaspiro[4.5]dec-7-yl)piperidin-1-yl]carbonyl}-6-methylthieno[2,3-b]pyridin-2-yl)-N′-methylurea]	0.01 to 0.1 µM	0.001 to 0.01 µM
CCNC(=O)Nc1sc2nc(C)ccc2c1C(=O)N1CCC(N2CCCC3(CC(=O)N(C(C)C)C3=O)C2)CC1 (single isomer, unassigned) [Example 19, N-ethyl-N′-(3-{[4-(2-isopropyl-1,3-dioxo-2,7-diazaspiro[4.5]dec-7-yl)piperidin-1-yl]carbonyl}-6-methylthieno[2,3-b]pyridin-2-yl)urea]	0.01 to 0.1 µM	–
CNC(=O)Nc1sc2nc(C)ccc2c1C(=O)N1CCC(N2CCCC3(C2)CC(C)(C)OC3=O)CC1 (single isomer, unassigned) [Example 27, N-(3-{[4-(3,3-dimethyl-1-oxo-2-oxa-7-azaspiro[4.5]dec-7-yl)piperidin-1-yl]carbonyl}-6-methylthieno[2,3-b]pyridin-2-yl)-N′-methylurea]	0.01 to 0.1 µM	0.001 to 0.01 µM
CNC(=O)Nc1sc2ncccc2c1C(=O)N1CCC(N2CCCC3(C2)SC(=O)N(C(C)C)C3=O)CC1 (stereo not shown) [Example 11, N-(3-{[4-(3-isopropyl-2,4-dioxo-1-thia-3,7-diazaspiro[4.5]dec-7-yl)piperidin-1-yl]carbonyl}thieno[2,3-b]pyridin-2-yl)-N′-methylurea]	0.01 to 0.1 µM	–
